A word on the IC50: it is the concentration at which inhibition is half-maximal.

The target of the assay is T1, Steroid 17-alpha-hydroxylase/17,20 lyase (Homo sapiens, UniProt P05093).
T1 sequence (P05093 whole entry): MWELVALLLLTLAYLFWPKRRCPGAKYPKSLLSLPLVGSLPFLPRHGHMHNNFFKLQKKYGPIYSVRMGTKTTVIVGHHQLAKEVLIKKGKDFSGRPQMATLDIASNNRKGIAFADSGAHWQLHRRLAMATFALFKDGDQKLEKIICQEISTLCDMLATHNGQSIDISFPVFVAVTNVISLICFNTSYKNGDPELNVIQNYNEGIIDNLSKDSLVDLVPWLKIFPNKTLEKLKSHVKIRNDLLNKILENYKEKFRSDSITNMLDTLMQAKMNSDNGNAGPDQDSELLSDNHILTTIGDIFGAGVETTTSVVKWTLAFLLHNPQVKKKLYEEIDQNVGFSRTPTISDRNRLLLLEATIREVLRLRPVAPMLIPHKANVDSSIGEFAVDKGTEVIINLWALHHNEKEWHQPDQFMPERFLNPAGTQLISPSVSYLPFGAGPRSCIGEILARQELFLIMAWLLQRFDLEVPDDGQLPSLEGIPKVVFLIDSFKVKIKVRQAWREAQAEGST
As to the kind of experiment: CYP17 Assay. Conditions: pH 7.4; 37 °C.
Compound `COc1ccc2c(c1)CCC(Cc1cnc[nH]1)=C2C` registered an IC50 of 0.11 µM. The compound `Oc1ccc(-c2ccc(Cn3ccnc3)cc2)cc1O` [4-[4-(1H-imidazol-1-ylmethyl)phenyl]benzene-1,2-diol] yielded an IC50 of 0.12 µM. `COc1cc2c(cc1OC)C(C)=C(Cc1cnc[nH]1)CC2` [5-[(6,7-dimethoxy-1-methyl-3,4-dihydronaphthalen-2-yl)methyl]-1H-imidazole] came in with an IC50 of 0.49 µM.

The compound `COc1cc2c(cc1O)C(C)=C(Cc1cnc[nH]1)CC2` [dihydronaphthalene derivative] had an IC50 of 1.1 µM.

The values above are taken from BindingDB's records for doi:10.1080/14756360310001640913 (Saarland University, 2004).
